Source: patent US10561655B2 (SYNBLia Therapeutics, Inc., priority 2018, dated 2020)
Read-outs that look alike come from different tables or passages of the source.

Key:
cells = assay: Cell Proliferation Assay (CellTiter Glo); format: cell-based
Method: Firstly, the cells were seeded in 384-well cell culture plate and incubate overnight. The test compounds were added to the cell plate and incubated for 3-5 days. The cell plate was then detected using CellTiter Glo reagents.

p-ERK/total ERK = p-ERK/total ERK Cellular Assay; format: cell-based
Method: p-ERK/total ERK Cellular Assay
Cells were seeded in 384-well cell culture plate and incubated overnight. Test compounds were added to the cell plate and the plate was incubated for 2-6 hours. To detect p-ERK, the cell plate was used AlphaLISA SureFire Ultra p-ERK kit; to detect total ERK, the cell plate was used total ERK HTRF kit. The plate was read on the Envision.

Full length SHP2 enzyme = Full length SHP2 enzyme (Homo sapiens (Human), UniProt Q06124); assay: SHP2 Phosphatase Assays; format: biochemical; conditions: full length SHP2 0.1 nM, 1 uM IRS-1 peptide, DiFMUP substrate, room temperature
Method: IC50 values were determined at room temperature in 384-well black polystyrene plate, using a final reaction volume of 15 μl and the following assay buffer conditions: 60 mM Hepes (pH=7.2), 75 mM NaCl, 75 mM KCl, and 1 mM EDTA, 0.05% P-20, 5 mM dithiothreitol (DTT). Full length SHP2 enzyme (diluted to 0.1 nM in reaction buffer) were co-incubated with 1 uM IRS-1 peptide and 0.01 nM to 10 μM compounds of the disclosure for 60 min. The surrogate substrate DiFMUP (5 μL, […]) was added, and incubated at rt for 60 min. The reaction was then quenched by the addition of 5 μL of a 40 μM solution of bpV(Phen). The fluorescence signal was monitored using a microplate reader (Envision, Perkin-Elmer) using excitation and emission wavelengths of 360 nm and 450 nm, respectively. The inhibitor dose-response curves were analyzed using normalized IC50 regression curve fitting with control-based normalization.

[1] = 3-5 days incubation, CellTiter Glo, read-out: IC50
[2] = p-ERK (AlphaLISA SureFire Ultra) / total ERK (HTRF), 2-6 hours incubation, read-out: IC50

Chain of Full length SHP2 enzyme (Q06124 whole entry): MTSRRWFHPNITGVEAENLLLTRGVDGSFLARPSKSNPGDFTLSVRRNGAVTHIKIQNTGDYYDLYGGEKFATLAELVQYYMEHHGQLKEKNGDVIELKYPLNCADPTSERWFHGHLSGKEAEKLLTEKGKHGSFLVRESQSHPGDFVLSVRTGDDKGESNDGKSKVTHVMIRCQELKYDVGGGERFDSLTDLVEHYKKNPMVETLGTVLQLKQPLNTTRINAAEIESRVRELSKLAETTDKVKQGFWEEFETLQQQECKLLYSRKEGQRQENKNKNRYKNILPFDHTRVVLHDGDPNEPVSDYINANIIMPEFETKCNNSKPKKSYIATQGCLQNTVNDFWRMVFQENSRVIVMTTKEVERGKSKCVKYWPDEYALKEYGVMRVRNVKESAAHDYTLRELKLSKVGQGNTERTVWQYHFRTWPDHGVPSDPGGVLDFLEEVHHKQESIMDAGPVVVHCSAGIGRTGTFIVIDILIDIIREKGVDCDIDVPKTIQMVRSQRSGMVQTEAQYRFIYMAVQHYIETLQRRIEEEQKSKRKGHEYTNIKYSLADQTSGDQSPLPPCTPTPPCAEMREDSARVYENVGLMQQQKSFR

Structure (SMILES) | IC50 (cells) | IC50 (p-ERK/total ERK) | IC50 (Full length SHP2 enzyme) | IC50 (cells; [1]) | IC50 (p-ERK/total ERK; [2])
CC1(CN)CCN(c2ncc(Sc3cccc(Cl)c3Cl)[nH]c2=O)CC1 [Compound 2, 3-(4-(aminomethyl)-4-methylpiperidin-1-yl)-6-((2,3-dichlorophenyl)thio)pyrazin-2(1H)-one] | < 5000 nM | < 500 nM | ≤ 50 nM | – | –
NC1COCC12CCN(c1ncc(Sc3cccc(Cl)c3Cl)[nH]c1=O)CC2 (centres unmarked) [Compound 10, 3-(4-amino-2-oxa-8-azaspiro[4.5]decan-8-yl)-6-((2,3-dichlorophenyl)thio)pyrazin-2(1H)-one] | < 5000 nM | < 100 nM | – | – | –
NC1C2CC2CC12CCN(c1ncc(Sc3cccc(Cl)c3Cl)[nH]c1=O)CC2 (centres unmarked) [Compound 13, 3-(2-aminospiro[bicyclo[3.1.0]hexane-3,4′-piperidin]-1′-yl)-6-((2,3-dichlorophenyl)thio)pyrazin-2(1H)-one] | – | – | ≤ 50 nM | – | –
C[C@@H]1OCC2(CCN(c3ncc(Sc4cccc(Cl)c4Cl)[nH]c3=O)CC2)[C@@H]1N [Compound 14] | – | – | ≤ 50 nM | < 1000 nM | < 100 nM
CC1(CN)CCN(c2ncc(Sc3cccc(NC(=O)c4c(O)nc5ccccn5c4=O)c3Cl)[nH]c2=O)CC1 [Compound 29, N-(3-((5-(4-(aminomethyl)-4-methylpiperidin-1-yl)-6-oxo-1,6-dihydropyrazin-2-yl)thio)-2-chlorophenyl)-2-hydroxy-4-oxo-4H-pyrido[1,2-a]pyrimidine-3-carboxamide] | – | – | ≤ 50 nM | < 5000 nM | < 100 nM
CC1(CN)CCN(c2ncc(Sc3cccc(NC(=O)c4c(O)nc5cnccn5c4=O)c3Cl)[nH]c2=O)CC1 [Compound 30, N-(3-((5-(4-(aminomethyl)-4-methylpiperidin-1-yl)-6-oxo-1,6-dihydropyrazin-2-yl)thio)-2-chlorophenyl)-2-hydroxy-4-oxo-4H-pyrazino[1,2-a]pyrimidine-3-carboxamide] | – | – | – | – | < 100 nM
CC1(CN)CCN(c2ncc(Sc3cccc(NC(=O)c4c(O)nc5sccn5c4=O)c3Cl)[nH]c2=O)CC1 [Compound 31, N-(3-((5-(4-(aminomethyl)-4-methylpiperidin-1-yl)-6-oxo-1,6-dihydropyrazin-2-yl)thio)-2-chlorophenyl)-7-hydroxy-5-oxo-5H-thiazolo[3,2-a]pyrimidine-6-carboxamide] | – | – | ≤ 50 nM | < 5000 nM | < 100 nM
CC1(CN)CCN(c2ncc(Sc3cccc(NC(=O)c4c(O)nc5[nH]ccn5c4=O)c3Cl)[nH]c2=O)CC1 [Compound 32, N-(3-((5-(4-(aminomethyl)-4-methylpiperidin-1-yl)-6-oxo-1,6-dihydropyrazin-2-yl)thio)-2-chlorophenyl)-7-hydroxy-5-oxo-1,5-dihydroimidazo[1,2-a]pyrimidine-6-carboxamide] | – | – | ≤ 50 nM | – | –
CC1(CN)CCN(c2ncc(Sc3cccc(NC(=O)c4c(O)nc5n(c4=O)CCCC5)c3Cl)[nH]c2=O)CC1 [Compound 33, N-(3-((5-(4-(aminomethyl)-4-methylpiperidin-1-yl)-6-oxo-1,6-dihydropyrazin-2-yl)thio)-2-chlorophenyl)-2-hydroxy-4-oxo-6,7,8,9-tetrahydro-4H-pyrido[1,2-a]pyrimidine-3-carboxamide] | – | – | ≤ 50 nM | – | < 100 nM
CC1(CN)CCN(c2nc3[nH]nc(Nc4cccc(Cl)c4Cl)c3c(=O)[nH]2)CC1 [Compound 34, 6-(4-(aminomethyl)-4-methylpiperidin-1-yl)-3-((2,3-dichlorophenyl)amino)-1,5-dihydro-4H-pyrazolo[3,4-d]pyrimidin-4-one] | – | – | ≤ 50 nM | – | < 500 nM
CC1(CN)CCN(c2nc3[nH]nc(Oc4cccc(Cl)c4Cl)c3c(=O)[nH]2)CC1 [Compound 35, 6-(4-(aminomethyl)-4-methylpiperidin-1-yl)-3-(2,3-dichlorophenoxy)-1,5-dihydro-4H-pyrazolo[3,4-d]pyrimidin-4-one] | – | – | ≤ 50 nM | – | < 500 nM
Cn1c(N2CCC(C)(CN)C2)nc(N)c(Sc2cccc(Cl)c2Cl)c1=O (centres unmarked) [Compound 52, 6-amino-2-(3-(aminomethyl)-3-methylpyrrolidin-1-yl)-5-((2,3-dichlorophenyl)thio)-3-methylpyrimidin-4(3H)-one] | – | – | ≤ 50 nM | – | –
N[C@@H]1COCC12CCN(c1ncc(Sc3cccc(Cl)c3Cl)[nH]c1=O)CC2 [Compound 73, (S)-3-(4-amino-2-oxa-8-azaspiro[4.5]decan-8-yl)-6-((2,3-dichlorophenyl)thio)pyrazin-2(1H)-one] | – | – | ≤ 50 nM | < 5000 nM | < 100 nM
NC1CCCC(n2ccc(-c3cccc(Cl)c3Cl)cc2=O)C1 (centres unmarked) [Compound 74, 1-(3-aminocyclohexyl)-4-(2,3-dichlorophenyl)pyridin-2(1H)-one] | – | – | ≤ 50 nM | – | –
C[C@@H]1OCC2(CCN(c3ncc(Sc4ccnc(N)c4Cl)[nH]c3=O)CC2)[C@@H]1N [Compound 77, 6-((2-amino-3-chloropyridin-4-yl)thio)-3-((3S,4S)-4-amino-3-methyl-2-oxa-8-azaspiro[4.5]decan-8-yl)pyrazin-2(1H)-one] | – | – | ≤ 50 nM | – | –
COc1cccc(Sc2cnc(N3CCC4(CC3)CO[C@@H](C)[C@H]4N)c(=O)[nH]2)c1Cl [Compound 79, 3-((3S,4S)-4-amino-3-methyl-2-oxa-8-azaspiro[4.5]decan-8-yl)-6-((2-chloro-3-methoxyphenyl)thio)pyrazin-2(1H)-one] | – | – | ≤ 50 nM | – | < 100 nM
COc1nccc(Sc2cnc(N3CCC4(CC3)CO[C@@H](C)[C@H]4N)c(=O)[nH]2)c1Cl [Compound 80, 3-((3S,4S)-4-amino-3-methyl-2-oxa-8-azaspiro[4.5]decan-8-yl)-6-((3-chloro-2-methoxypyridin-4-yl)thio)pyrazin-2(1H)-one] | – | – | ≤ 50 nM | – | < 100 nM
C[C@@H]1OCC2(CCN(c3ncc(Sc4ccnc(Cl)c4Cl)[nH]c3=O)CC2)[C@@H]1N [Compound 81, 3-((3S,4S)-4-amino-3-methyl-2-oxa-8-azaspiro[4.5]decan-8-yl)-6-((2,3-dichloropyridin-4-yl)thio)pyrazin-2(1H)-one] | – | – | ≤ 50 nM | < 1000 nM | < 100 nM
C[C@@H]1OCC2(CCN(c3ncc(Sc4cccc(F)c4F)[nH]c3=O)CC2)[C@@H]1N [Compound 82, 3-((3S,4S)-4-amino-3-methyl-2-oxa-8-azaspiro[4.5]decan-8-yl)-6-((2,3-difluorophenyl)thio)pyrazin-2(1H)-one] | – | – | ≤ 50 nM | < 5000 nM | < 100 nM
C[C@@H]1OCC2(CCN(c3ncc(Sc4ccnc(F)c4Cl)[nH]c3=O)CC2)[C@@H]1N [Compound 83, 3-((3S,4S)-4-amino-3-methyl-2-oxa-8-azaspiro[4.5]decan-8-yl)-6-((3-chloro-2-fluoropyridin-4-yl)thio)pyrazin-2(1H)-one] | – | – | ≤ 50 nM | < 1000 nM | < 100 nM
C[C@@H]1OCC2(CCN(c3ncc(Sc4ccnc(F)c4F)[nH]c3=O)CC2)[C@@H]1N [Compound 84] | – | – | ≤ 50 nM | < 1000 nM | < 100 nM
NC1C2CN(c3ncc(Sc4cccc(Cl)c4Cl)[nH]c3=O)CC12 (centres unmarked) [Compound 86, 3-(6-amino-3-azabicyclo[3.1.0]hexan-3-yl)-6-((2,3-dichlorophenyl)thio)pyrazin-2(1H)-one] | – | – | ≤ 50 nM | – | –
N[C@@H]1c2ccccc2OC12CCN(c1ncc(Sc3cccc(Cl)c3Cl)[nH]c1=O)CC2 [Compound 87, (R)-3-(3-amino-3H-spiro[benzofuran-2,4′-piperidin]-1′-yl)-6-((2,3-dichlorophenyl)thio)pyrazin-2(1H)-one] | – | – | ≤ 50 nM | – | –
N[C@@H]1COCC12CCN(c1ncc(Sc3ccnc(Cl)c3Cl)[nH]c1=O)CC2 [Compound 88, (S)-3-(4-amino-2-oxa-8-azaspiro[4.5]decan-8-yl)-6-((2,3-dichloropyridin-4-yl)thio)pyrazin-2(1H)-one] | – | – | ≤ 50 nM | – | –
C[C@@H]1OCC2(CCN(c3ncc(Sc4cc[nH]c(=O)c4Cl)[nH]c3=O)CC2)[C@@H]1N [Compound 107, 3-((3S,4S)-4-amino-3-methyl-2-oxa-8-azaspiro[4.5]decan-8-yl)-6-((3-chloro-2-oxo-1,2-dihydropyridin-4-yl)thio)pyrazin-2(1H)-one] | – | – | ≤ 50 nM | – | –
N[C@@H]1c2ccccc2CC12CCN(c1ncc(Sc3cccc(Cl)c3Cl)[nH]c1=O)CC2 [Compound 108, (S)-3-(1-amino-1,3-dihydrospiro[indene-2,4′-piperidin]-1′-yl)-6-((2,3-dichlorophenyl)thio)pyrazin-2(1H)-one] | – | – | ≤ 50 nM | – | –
C[C@@H]1OCC2(CCN(c3ncc(Sc4cccc(F)c4Cl)[nH]c3=O)CC2)[C@@H]1N [Compound 109, 3-((3S,4S)-4-amino-3-methyl-2-oxa-8-azaspiro[4.5]decan-8-yl)-6-((2-chloro-3-fluorophenyl)thio)pyrazin-2(1H)-one] | – | – | ≤ 50 nM | < 5000 nM | < 100 nM
